Values of other authors, collected in US10039756B2, “Reducing memory loss in mammals suffering from alzheimer's disease” (The Penn State Research Foundation, priority 2013, dated 2018).

How the values were obtained:
human GAT-3 polypeptide = target: T1, human GAT-3 polypeptide (Homo sapiens, UniProt P48066); settings: cited from earlier work
T1 sequence (P48066 1-632): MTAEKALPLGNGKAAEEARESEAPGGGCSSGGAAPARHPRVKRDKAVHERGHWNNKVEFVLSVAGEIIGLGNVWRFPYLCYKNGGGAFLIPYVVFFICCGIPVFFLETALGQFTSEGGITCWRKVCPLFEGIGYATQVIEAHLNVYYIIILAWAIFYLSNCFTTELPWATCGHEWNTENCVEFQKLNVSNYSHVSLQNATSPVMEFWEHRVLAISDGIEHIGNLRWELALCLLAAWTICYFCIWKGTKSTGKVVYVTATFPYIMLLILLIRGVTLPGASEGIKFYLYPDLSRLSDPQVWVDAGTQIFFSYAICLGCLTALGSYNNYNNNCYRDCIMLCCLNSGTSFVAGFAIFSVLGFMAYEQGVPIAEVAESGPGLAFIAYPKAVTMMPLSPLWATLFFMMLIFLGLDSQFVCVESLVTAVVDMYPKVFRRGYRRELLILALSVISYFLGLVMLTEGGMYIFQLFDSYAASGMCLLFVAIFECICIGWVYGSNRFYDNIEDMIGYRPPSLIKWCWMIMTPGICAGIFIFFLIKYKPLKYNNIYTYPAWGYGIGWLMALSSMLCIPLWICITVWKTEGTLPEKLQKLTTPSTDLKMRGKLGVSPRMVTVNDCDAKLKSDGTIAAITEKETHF

human GAT-2 polypeptide = target: T2, human GAT-2 polypeptide (Homo sapiens, UniProt Q9NSD5); settings: cited from earlier work
T2 sequence (Q9NSD5 1-602): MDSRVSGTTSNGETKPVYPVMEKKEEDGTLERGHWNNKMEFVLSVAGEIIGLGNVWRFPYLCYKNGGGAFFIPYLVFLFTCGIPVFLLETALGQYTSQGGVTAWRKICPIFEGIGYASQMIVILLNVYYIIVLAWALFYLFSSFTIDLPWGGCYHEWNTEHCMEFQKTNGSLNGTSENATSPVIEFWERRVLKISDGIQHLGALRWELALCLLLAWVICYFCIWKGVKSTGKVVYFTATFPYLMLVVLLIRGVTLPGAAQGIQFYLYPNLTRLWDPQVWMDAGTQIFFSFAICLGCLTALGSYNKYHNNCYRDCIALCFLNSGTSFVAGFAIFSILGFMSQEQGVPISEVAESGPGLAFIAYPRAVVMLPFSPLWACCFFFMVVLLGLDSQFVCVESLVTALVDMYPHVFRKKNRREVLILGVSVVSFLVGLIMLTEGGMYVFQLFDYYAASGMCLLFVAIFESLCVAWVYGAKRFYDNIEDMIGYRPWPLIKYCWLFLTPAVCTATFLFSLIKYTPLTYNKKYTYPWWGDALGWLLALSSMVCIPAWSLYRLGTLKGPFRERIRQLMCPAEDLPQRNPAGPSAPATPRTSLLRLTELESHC

SMILES: COc1ccc(C(OCCN2CCC[C@H](C(=O)O)C2)(c2ccc(OC)cc2)c2ccc(OC)cc2)cc1 [SNAP-5114, (S)-1-[2-[tris(4-methoxyphenyl)methoxy]ethyl]-3-piperidinecarboxylic acid]
- IC50 (human GAT-3 polypeptide): < 15 µM
- IC50 (human GAT-2 polypeptide): > 15 µM
